From US5243027A, “Method of preparing angiotensin converting enzyme inhibitors” (Unitika, Ltd., priority 1990, dated 1993)
No end group written: not given here.

target: T1, angiotensin converting enzyme (Oryctolagus cuniculus, UniProt P12822); assay: Determination of angiotensin converting enzyme inhibitory activity (method of Cushmann et al., hippuryl-L-histidine-L-leucine substrate); assay type: biochemical; settings: rabbit lung enzyme, 37° C., 30 minutes, pH 8.3; peptides isolated from Bacillus stearothermophilus hydrolysate; read-out: IC50 (concentration of the sample showing 50% inhibition) (converted)
T1 construct: The supernatant was dialyzed against the same buffer to remove low-molecular weight substances resulting in an angiotensin converting enzyme solution; tissue Sigma Co; host or cells: rabbit lung (acetone-dried preparation)
T1 sequence (P12822 34-1310): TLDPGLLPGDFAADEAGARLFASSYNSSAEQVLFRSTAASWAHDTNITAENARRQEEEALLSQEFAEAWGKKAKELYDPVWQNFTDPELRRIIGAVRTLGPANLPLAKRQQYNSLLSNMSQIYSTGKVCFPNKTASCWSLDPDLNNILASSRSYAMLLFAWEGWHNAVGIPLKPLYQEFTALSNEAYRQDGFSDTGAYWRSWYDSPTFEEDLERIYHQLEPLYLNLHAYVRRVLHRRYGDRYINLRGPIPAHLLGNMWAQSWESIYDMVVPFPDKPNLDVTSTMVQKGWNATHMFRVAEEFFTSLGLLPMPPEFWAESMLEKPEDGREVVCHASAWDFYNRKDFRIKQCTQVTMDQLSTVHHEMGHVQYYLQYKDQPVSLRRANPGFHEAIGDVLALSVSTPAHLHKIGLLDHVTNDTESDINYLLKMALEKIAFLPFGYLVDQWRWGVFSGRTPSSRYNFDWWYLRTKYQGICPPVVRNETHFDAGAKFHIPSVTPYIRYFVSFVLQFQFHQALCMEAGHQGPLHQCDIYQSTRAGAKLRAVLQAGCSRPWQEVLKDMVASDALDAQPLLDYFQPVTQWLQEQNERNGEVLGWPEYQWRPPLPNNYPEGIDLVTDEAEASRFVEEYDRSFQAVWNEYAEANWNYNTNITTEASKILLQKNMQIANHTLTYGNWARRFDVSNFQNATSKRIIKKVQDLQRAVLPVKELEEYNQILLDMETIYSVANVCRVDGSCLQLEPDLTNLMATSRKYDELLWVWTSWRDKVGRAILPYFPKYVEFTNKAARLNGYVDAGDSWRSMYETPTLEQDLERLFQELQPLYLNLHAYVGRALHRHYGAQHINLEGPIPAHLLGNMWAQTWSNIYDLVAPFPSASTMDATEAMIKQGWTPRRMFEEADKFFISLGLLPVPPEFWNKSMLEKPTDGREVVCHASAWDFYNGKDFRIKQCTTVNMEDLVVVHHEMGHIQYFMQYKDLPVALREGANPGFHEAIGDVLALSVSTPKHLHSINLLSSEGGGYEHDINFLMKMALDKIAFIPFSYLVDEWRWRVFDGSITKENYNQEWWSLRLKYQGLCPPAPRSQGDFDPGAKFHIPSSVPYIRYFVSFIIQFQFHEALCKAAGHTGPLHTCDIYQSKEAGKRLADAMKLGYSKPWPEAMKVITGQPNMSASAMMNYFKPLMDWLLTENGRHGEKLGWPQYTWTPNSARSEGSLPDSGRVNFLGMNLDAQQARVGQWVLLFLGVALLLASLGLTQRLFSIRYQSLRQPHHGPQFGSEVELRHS
Procedure: Angiotensin converting enzyme inhibitory activity during isolation and purification was determined using the method of Cushmann et al., Biochem. Pharacol., Vol. 20, pp. 1637-1648 (1971).
A commercially available acetone-dried preparation of rabbit lungs (product of Sigma Co.) was dissolved in a 50 mM potassium phosphate buffer solution (pH=8.3) at 4° C. and the solution was centrifuged at 37,000×g for 30 minutes. The supernatant was dialyzed against the same buffer to remove low-molecular weight substances resulting in an angiotensin converting enzyme solution.
Hippuryl-L-histidine-L-leucine (product of Peptide Kenkyusho) was added to a 0.1M potassium phosphate buffer solution (pH=8.3) containing 0.3M NaCl to prepare a 2.5 mM enzyme substrate solution. The above-prepared angiotensin converting enzyme, water and a test sample were added to the substrate solution in a final volume of 0.25 ml and the system was allowed to react at 37° C. for 30 minutes. Then, 0.25 ml of 1N HCl was added thereto to stop the reaction and 1.5 ml of ethyl acetate was added to extract released hippuric acid. A 1 ml aliquot of the ethyl acetate extract was evaporated to dryness. To the residue was added 1 ml of distilled water and the absorbance at 228 nm was measured to determine the amount of hippuric acid.
Percent inhibition was calculated from the above-measured absorbance (A) and an absorbance of a blank (B) according to the following equation: [formula] The concentration of the sample showing 50% inhibition was taken as IC50.

IC50 | Sequence
35 µM | AYIASKGL [(c), Ala-Tyr-Ile-Ala-Ser-Lys-Gly-Leu]
65.7 µM | GKEIIVKAER [(a), Gly-Lys-Glu-Ile-Ile-Val-Lys-Ala-Glu-Arg]
6.69 µM | GKMVKVVSWY [(b), Gly-Lys-Met-Val-Lys-Val-Val-Ser-Trp-Tyr]
